Experimental findings from PubChem BioAssay AID1259407 (Chemical Carcinogenesis Research Information System (CCRIS), 2018) are described below.

This series deals with CCRIS mutagenicity, Ames/micronucleus/aberration tests. As to the kind of experiment: CCRIS mutagenicity studies.
Setting [1] is: Test System: AMES SALMONELLA TYPHIMURIUM, Strain/Indicator: TA98, Metabolic Activation: RAT, LIVER, S-9, AROCLOR 1254, Method: STANDARD PLATE.
The mark [2] stands for this setting: Test System: AMES SALMONELLA TYPHIMURIUM, Strain/Indicator: TA98, Metabolic Activation: NONE, Method: STANDARD PLATE.
The mark [3] stands for this setting: Test System: AMES SALMONELLA TYPHIMURIUM, Strain/Indicator: TA100, Metabolic Activation: NONE, Method: STANDARD PLATE.
The mark [4] stands for this setting: Test System: AMES SALMONELLA TYPHIMURIUM, Strain/Indicator: TA100, Metabolic Activation: RAT, LIVER, S-9, AROCLOR 1254, Method: STANDARD PLATE.
Setting [5] is: Test System: AMES SALMONELLA TYPHIMURIUM, Strain/Indicator: TA1535, Metabolic Activation: NONE, Method: STANDARD PLATE.
Where [6] appears, read: Test System: AMES SALMONELLA TYPHIMURIUM, Strain/Indicator: TA1535, Metabolic Activation: RAT, LIVER, S-9, AROCLOR 1254, Method: STANDARD PLATE.
Setting [7] is: Test System: AMES SALMONELLA TYPHIMURIUM, Strain/Indicator: TA1537, Metabolic Activation: NONE, Method: STANDARD PLATE.
Setting [8] is: Test System: AMES SALMONELLA TYPHIMURIUM, Strain/Indicator: TA1537, Metabolic Activation: RAT, LIVER, S-9, AROCLOR 1254, Method: STANDARD PLATE.
Where [9] appears, read: Test System: AMES SALMONELLA TYPHIMURIUM, Strain/Indicator: TA1538, Metabolic Activation: NONE, Method: STANDARD PLATE.
Setting [10] is: Test System: AMES SALMONELLA TYPHIMURIUM, Strain/Indicator: TA1538, Metabolic Activation: RAT, LIVER, S-9, AROCLOR 1254, Method: STANDARD PLATE.

Active and inactive are the calls of the source. How the calls were made is not given here.

Consider `CNc1ccc2ccc3ccc(O)cc3c2c1`, for which the mutagenic call is, setting by setting: under setting [1], “active; positive”; (Test System: AMES SALMONELLA TYPHIMURIUM, Strain/Indicator: TA98, Metabolic Activation: RAT, LIVER, S-9, AROCLOR, Method: STANDARD PLATE) “active; positive”.
As to `O=CC(O)C(O)C(O)C(O)COC1OC(COC2OC(CO)C(O)C(O)C2O)C(O)C(O)C1O` (stereo not drawn), the mutagenic call is “inactive; negative” (Test System: AMES SALMONELLA TYPHIMURIUM, Strain/Indicator: TA98, Metabolic Activation: HAMSTER, LIVER, S-9, AROCLOR 1254, Method: STANDARD PLATE); “inactive; negative” under setting [2]; “inactive; negative” under setting [1]; “inactive; negative” (Test System: AMES SALMONELLA TYPHIMURIUM, Strain/Indicator: TA100, Metabolic Activation: HAMSTER, LIVER, S-9, AROCLOR 1254, Method: STANDARD PLATE); “inactive; negative” under setting [3]; “inactive; negative” under setting [4]. The mutagenic call was “inactive; negative” (Test System: AMES SALMONELLA TYPHIMURIUM, Strain/Indicator: TA1535, Metabolic Activation: HAMSTER, LIVER, S-9, AROCLOR 1254, Method: STANDARD PLATE); “inactive; negative” under setting [5]; “inactive; negative” under setting [6]; “inactive; negative” (Test System: AMES SALMONELLA TYPHIMURIUM, Strain/Indicator: TA1537, Metabolic Activation: HAMSTER, LIVER, S-9, AROCLOR 1254, Method: STANDARD PLATE); “inactive; negative” under setting [7]; “inactive; negative” under setting [8]. For the same compound, the mutagenic call was “inactive; negative” (Test System: AMES SALMONELLA TYPHIMURIUM, Strain/Indicator: TA1538, Metabolic Activation: HAMSTER, LIVER, S-9, AROCLOR 1254, Method: STANDARD PLATE); “inactive; negative” under setting [9]; “inactive; negative” under setting [10]; “inactive; negative” (Test System: Mouse lymphoma, Strain/Indicator: L5178Y (tk+/tk-), Metabolic Activation: None, Method: Suspension/plate); “inactive; negative” (Test System: Mouse lymphoma, Strain/Indicator: L5178Y (tk+/tk-), Metabolic Activation: Rat, Liver, S-9, Aroclor 1254, Method: Suspension/plate).
Regarding `CN(C)c1ccc([C@H]2C[C@@]3(C)[C@@H](CC[C@@]3(O)/C=C\CO)[C@@H]3CCC4=CC(=O)CCC4=C32)cc1`, the mutagenic call reads like this: (End Point: IN VITRO CHROMOSOMAL ABERRATIONS, Test System: HUMAN PERIPHERAL LYMPHOCYTES, Metabolic Activation: NONE) “inactive; negative”; (End Point: IN VITRO CHROMOSOMAL ABERRATIONS, Test System: HUMAN PERIPHERAL LYMPHOCYTES, Metabolic Activation: RAT, LIVER, S-9, AROCLOR 1254) “inactive; negative”; under setting [2], “inactive; negative”; under setting [1], “inactive; negative”; under setting [3], “inactive; negative”; under setting [4], “inactive; negative”. Also, the mutagenic call is “inactive; negative” under setting [5]; “inactive; negative” under setting [6]; “inactive; negative” under setting [7]; “inactive; negative” under setting [8]; “inactive; negative” under setting [9]; “inactive; negative” under setting [10].
As for `CCCCN(C[C@H](CO)OCc1ccccc1)N=O`, the mutagenic call runs as follows: (Test System: AMES SALMONELLA TYPHIMURIUM, Strain/Indicator: TA100, Metabolic Activation: NONE, Method: PREINCUBATION) “inactive; negative”; (Test System: AMES SALMONELLA TYPHIMURIUM, Strain/Indicator: TA100, Metabolic Activation: RAT, LIVER, S-9, PCB, Method: PREINCUBATION) “active; positive”.
Regarding `O=[N+]([O-])c1ccc2c(c1)CCc1ccccc1-2`, the mutagenic call reads like this: (Test System: AMES SALMONELLA TYPHIMURIUM, Strain/Indicator: TA98(1,8-DNP6), Metabolic Activation: NONE, Method: STANDARD PLATE) “active; positive”; (Test System: AMES SALMONELLA TYPHIMURIUM, Strain/Indicator: TA98(NR), Metabolic Activation: NONE, Method: STANDARD PLATE) “active; positive”; under setting [2], “active; positive”.
Regarding `C=C(C=O)CCC`, the mutagenic call runs as follows: (Test System: AMES SALMONELLA TYPHIMURIUM, Strain/Indicator: TA100, Metabolic Activation: RAT LIVER S-9, AROCLOR 1254, Method: PREINCUBATION) “active; positive”; (Test System: AMES SALMONELLA TYPHIMURIUM, Strain/Indicator: TA100, Metabolic Activation: RAT, LIVER, S-9, AROCLOR 1254, Method: PREINCUBATION) “active; positive”.
